Reference: patent US20250215029A1 (Recludix Pharma, Inc., priority 2022, published 2025)
Like-named read-outs stand apart in the source and are kept apart here.

What was measured:
[1] = target: T1, Recombinant STAT3 protein (STAT3 (G127-I722)) (Homo sapiens, UniProt P40763); experiment: STAT3 Fluorescence Polarization (FP) Assay; type: binding; details: probe 5-FAM-GpYLPQTV-NH2 2 nM, 45-minute incubation
T1 construct: Recombinant STAT3 protein (STAT3 (G127-I722))
Outline: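 Displacement of a fluorescent phosphotyrosine peptide (5-FAM-GpYLPQTV-NH2, 2 nM) from 25 nM recombinant STAT3 G127-I722 was monitored by FP after 45 min at room temperature.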

[2] = target: T2, Recombinant STAT6 protein (STAT6 (W123-T658)) (Homo sapiens, UniProt P42226); experiment: STAT6 Fluorescence Polarization (FP) Assay; type: binding; details: 45-minute incubation
T2 construct: Recombinant STAT6 protein (STAT6 (W123-T658))
T2 sequence (P42226 123-658): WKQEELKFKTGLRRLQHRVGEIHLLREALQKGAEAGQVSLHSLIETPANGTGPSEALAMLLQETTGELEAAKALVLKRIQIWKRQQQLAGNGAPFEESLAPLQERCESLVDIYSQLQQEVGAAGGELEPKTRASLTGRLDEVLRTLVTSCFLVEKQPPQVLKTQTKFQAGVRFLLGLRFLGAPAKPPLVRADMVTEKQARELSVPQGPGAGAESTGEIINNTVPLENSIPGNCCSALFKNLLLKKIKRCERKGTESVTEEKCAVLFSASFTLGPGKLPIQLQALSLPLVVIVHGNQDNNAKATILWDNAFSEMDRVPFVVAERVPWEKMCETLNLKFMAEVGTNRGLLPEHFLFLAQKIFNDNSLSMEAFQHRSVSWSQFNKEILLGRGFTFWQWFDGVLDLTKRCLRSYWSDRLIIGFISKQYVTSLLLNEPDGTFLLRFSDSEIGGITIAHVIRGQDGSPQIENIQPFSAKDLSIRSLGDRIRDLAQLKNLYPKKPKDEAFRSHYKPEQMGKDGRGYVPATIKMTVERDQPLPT
Outline: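 Displacement of a fluorescent phosphotyrosine peptide (2 nM) from 250 nM STAT6 (W123-T658) is measured by polarization after a 45-minute room-temperature incubation. Compounds are titrated serially at 1% DMSO, and IC50 values derive from regression of mP on log concentration.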

[3] = STAT3 (G127-I722) 25 nM, read-out: STAT3 (FP assay IC50 class)
[4] = STAT6 (W123-T658) 250 nM, probe 5-FAM-Ap[…]-NH2 2 nM, read-out: STAT6 (FP assay IC50 class)
[5] = STAT3 25 nM, read-out: STAT3 (FP assay IC50)
[6] = STAT6 250 nM, probe 5-FAM-Ap[…]-NH2 2 nM, read-out: STAT6 (FP assay IC50)

T1 sequence (P40763 127-722): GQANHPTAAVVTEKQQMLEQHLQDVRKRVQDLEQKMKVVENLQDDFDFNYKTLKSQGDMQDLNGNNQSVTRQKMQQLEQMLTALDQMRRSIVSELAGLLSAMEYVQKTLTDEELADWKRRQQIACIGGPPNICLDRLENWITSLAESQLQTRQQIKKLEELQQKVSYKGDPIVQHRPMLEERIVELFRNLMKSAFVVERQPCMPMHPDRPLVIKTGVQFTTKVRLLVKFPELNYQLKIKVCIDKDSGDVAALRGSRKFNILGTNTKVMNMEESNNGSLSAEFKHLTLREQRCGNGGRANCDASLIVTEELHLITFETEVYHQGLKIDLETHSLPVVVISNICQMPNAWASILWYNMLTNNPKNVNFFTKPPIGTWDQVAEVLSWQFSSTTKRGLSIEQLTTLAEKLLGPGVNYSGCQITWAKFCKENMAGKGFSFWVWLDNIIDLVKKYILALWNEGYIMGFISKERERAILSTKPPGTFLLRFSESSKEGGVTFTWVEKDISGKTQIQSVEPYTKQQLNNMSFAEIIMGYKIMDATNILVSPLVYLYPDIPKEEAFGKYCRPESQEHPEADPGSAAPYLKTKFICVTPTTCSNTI

Row | IC50 [1, 3] [µM] | IC50 [2, 4] [µM] | IC50 [1, 5] [µM] | IC50 [2, 6] [µM] | SMILES | IC50 ([2]; STAT6 250 nM, probe 5-FAM-ApYKPFQDLI-NH2 2 nM, read-out: STAT6 (FP assay IC50)) [µM]
1 | > 10 | 0.3 to 3 |  |  | CC1C[C@H]2CC[C@@H](C(=O)N3CC(c4cccnc4)C3)N2C(=O)[C@@H](NC(=O)c2cc3cc(C(F)(F)P(=O)(O)O)ccc3s2)C1 (stereo partly drawn) [Compound 759, (difluoro(2-(((3S,6S,9aR)-8-methyl-5-oxo-3-(3-(pyridin-3-yl)azetidine-1-carbonyl)octahydro-1H-pyrrolo[1,2-a]azepin-6-yl)carbamoyl)benzo [b]thiophen-5-yl)methyl) phosphonic acid] | 
2 | < 0.1 | 0.3 to 3 |  |  | O=C(N[C@H]1CCC[C@H]2CC[C@@H](C(=O)NCc3ccc4[nH]cnc4c3)N2C1=O)c1cc2cc(C(F)(F)P(=O)(O)O)ccc2s1 [Compound 1115, ((2-(((3S,6S,9aS)-3-(((1H-benzo[d]imidazol-5-yl)methyl)carbamoyl)-5-oxooctahydro-1H-pyrrolo[1,2-a]azepin-6-yl)carbamoyl)benzo[b]thiophen-5-yl)difluoromethyl)phosphonic acid] | 
3 | 0.1 to 1 | 3 to 30 |  |  | CN=S(C)(=O)CC1(OC)CN(C(=O)[C@@H]2CC[C@@H]3CCC[C@H](NC(=O)c4cc5cc(C(F)(F)P(=O)(O)O)ccc5s4)C(=O)N32)C1 (stereo partly drawn) [Compound 827, ((2-(((3S,6S,9aS)-3-(3-((N,S-dimethyl-sulfonimidoyl)methyl)-3-methoxyazetidine-1-carbonyl)-5-oxooctahydro-1H-pyrrolo[1,2-a]azepin-6-yl)carbamoyl)benzo [b]thiophen-5-yl)difluoromethyl) phosphonic acid] | 
4 | 0.1 to 1 | ≤ 0.3 |  |  | O=C(N[C@H]1CCC[C@H]2CC[C@@H](C(=O)N3CCOC(c4cccnc4)C3)N2C1=O)c1cc2cc(C(F)(F)P(=O)(O)O)ccc2s1 (stereo partly drawn) [Compound 1124, (difluoro(2-(((3S,6S,9aS)-5-oxo-3-(2-(pyridin-3-yl)morpholine-4-carbonyl)octahydro-1H-pyrrolo[1,2-a]azepin-6-yl)carbamoyl)benzo[b]thiophen-5-yl)methyl)phosphonic acid] | 
5 |  |  | < 0.1 | 3 to 30 | CS(=N)(=O)CC1CN(C(=O)[C@@H]2CC[C@@H]3CCCC[C@H](NC(=O)c4cc5cc(C(F)(F)P(=O)(O)O)ccc5s4)C(=O)N32)C1 (stereo partly drawn) [Compound 66, (difluoro(2-(((3S,6S,10aS)-3-(3-((S-methyl-sulfonimidoyl)methyl)azetidine-1-carbonyl)-5-oxodecahydropyrrolo [1,2-a]azocin-6-yl)carbamoyl)benzo[b]thiophen-5-yl)methyl) phosphonic acid] | 
6 | 1 to 10 | 0.3 to 3 |  |  | N#CC1CN(C(=O)[C@@H]2CC[C@@H]3CC[C@H](NC(=O)c4cc5cc(C(F)(F)P(=O)(O)O)ccc5s4)C(=O)N32)C[C@@H]1c1ccccc1 (relative stereo) [Compound 733, ((2-(((3S,6S,8aS)-3-((rel-trans)-3-cyano-4-phenylpyrrolidine-1-carbonyl)-5-oxooctahydro-indolizin-6-yl)carbamoyl)benzo [b]thiophen-5-yl)difluoromethyl) phosphonic acid] | 

Continued, molecule first:

Row | SMILES | IC50 [1, 3] [µM] | IC50 [2, 4] [µM] | IC50 [1, 5] [µM] | IC50 [2, 6] [µM] | IC50 ([2]; STAT6 250 nM, probe 5-FAM-ApYKPFQDLI-NH2 2 nM, read-out: STAT6 (FP assay IC50)) [µM]
7 | O=C(N[C@H]1CCC[C@H]2CC[C@@H](C(=O)N3CC(c4cnccc4N4CC(OC(F)F)C4)C3)N2C1=O)c1cc2cc([C@@H](F)P(=O)(O)O)ccc2s1 [Compound 852, ((S)-(2-(((3S,6S,9aS)-3-(3-(4-(3-(difluoromethoxy)azetidin-1-yl)pyridin-3-yl)azetidine-1-carbonyl)-5-oxooctahydro-1H-pyrrolo[1,2-a]azepin-6-yl)carbamoyl)benzo [b]thiophen-5-yl)fluoromethyl) phosphonic acid] | < 0.1 | 0.3 to 3 |  |  | 
8 | O=C(N[C@H]1CC[C@H](O)C[C@H]2CC[C@@H](C(=O)N3CC(C(=O)N4CCOCC4)C3)N2C1=O)c1cc2cc(C(F)(F)P(=O)(O)O)ccc2s1 [Compound 5, (difluoro(2-(((3S,6S,9S,10aR)-9-hydroxy-3-(3-(morpholine-4-carbonyl)azetidine-1-carbonyl)-5-oxodecahydropyrrolo [1,2-a]azocin-6-yl)carbamoyl)benzo[b]thiophen-5-yl)methyl)phosphonic acid] |  |  | 0.1 to 1 | 3 to 30 | 
9 | COc1ccncc1C1CN(C(=O)[C@@H]2CC[C@@H]3C[C@H](C)C[C@H](NC(=O)c4cc5cc([C@H](F)P(=O)(O)O)ccc5s4)C(=O)N32)C1 [Compound 766, ((R)-fluoro(2-(((3S,6S,8R,9aR)-3-(3-(4-methoxypyridin-3-yl)azetidine-1-carbonyl)-8-methyl-5-oxooctahydro-1H-pyrrolo[1,2-a]azepin-6-yl)carbamoyl)benzo [b]thiophen-5-yl)methyl) phosphonic acid] | < 0.1 | 3 to 30 |  |  | 
10 | CC1C(c2cccnc2)CN1C(=O)[C@@H]1CC[C@@H]2CCC[C@H](NC(=O)c3cc4cc(C(F)P(=O)(O)O)ccc4s3)C(=O)N21 (stereo partly drawn) [Compound 602, (fluoro(2-(((3S,6S,9aS)-3-(2-methyl-3-(pyridin-3-yl)azetidine-1-carbonyl)-5-oxooctahydro-1H-pyrrolo[1,2-a]azepin-6-yl)carbamoyl)benzo [b]thiophen-5-yl)methyl) phosphonic acid] | < 0.1 | 3 to 30 |  |  | 
11 | CC1CCC[C@H](NC(=O)c2cc3cc(C(F)(F)P(=O)(O)O)ccc3s2)C(=O)N2[C@@H]1CC[C@H]2C(=O)N1C[C@H](c2cc[nH]c(=O)c2)[C@@H](C#N)C1 (single isomer, unassigned) [Compound 104, ((2-(((3S,6S,10aR)-3-((3R,4S or 3S,4R)-3-cyano-4-(2-oxo-1,2-dihydropyridin-4-yl)pyrrolidine-1-carbonyl)-10-methyl-5-oxodecahydropyrrolo [1,2-a]azocin-6-yl)carbamoyl)benzo[b]thiophen-5-yl)difluoromethyl) phosphonic acid] |  |  | 0.1 to 1 |  | 0.3 to 3
12 | CCO[C@H]1CC[C@H]2CC[C@@H](C(=O)N3CC(C(=O)N4CCOCC4)C3)N2C(=O)[C@@H](NC(=O)c2cc3cc(C(F)(F)P(=O)(O)O)ccc3s2)C1 [Compound 10, ((2-(((3S,6S,8S,10aR)-8-ethoxy-3-(3-(morpholine-4-carbonyl)azetidine-1-carbonyl)-5-oxodecahydropyrrolo [1,2-a]azocin-6-yl)carbamoyl)benzo[b]thiophen-5-yl)difluoromethyl) phosphonic acid] |  |  | 0.1 to 1 | 3 to 30 | 
13 | O=C(N[C@H]1CCC[C@H]2CC[C@@H](C(=O)N3CC(C(=O)N4CCOCC4)C3)N2C1=O)c1cc2cc(C(F)(F)P(=O)(O)O)ccc2s1 [Compound 94, (difluoro(2-(((3S,6S,9aS)-3-(3-(morpholine-4-carbonyl)azetidine-1-carbonyl)-5-oxooctahydro-1H-pyrrolo[1,2-a]azepin-6-yl)carbamoyl)benzo[b]thiophen-5-yl)methyl) phosphonic acid] |  |  | 0.1 to 1 | 3 to 30 | 
14 | N#C[C@@H]1[C@@H](c2ccccc2)CN(C(=O)[C@@H]2CC[C@@H]3CCCC[C@H](NC(=O)c4ccc5ccc(C(F)P(=O)(O)O)cc5c4)C(=O)N32)C12CC2 (single isomer, unassigned) [Compound 894] | 1 to 10 | ≤ 0.3 |  |  | 
15 | Cc1ncncc1C1CN(C(=O)[C@@H]2CC[C@@H]3CCC[C@H](NC(=O)c4cc5cc(CP(=O)(O)O)ccc5s4)C(=O)N32)C1 [Compound 661, ((2-(((3S,6S,9aS)-3-(3-(4-methylpyrimidin-5-yl)azetidine-1-carbonyl)-5-oxooctahydro-1H-pyrrolo[1,2-a]azepin-6-yl)carbamoyl)benzo [b]thiophen-5-yl)methyl) phosphonic acid] | 1 to 10 | 3 to 30 |  |  | 
16 | CC[C@@H]1CC[C@H](NC(=O)c2cc3cc(C(F)P(=O)(O)O)ccc3s2)C(=O)N2[C@H](CC[C@H]2C(=O)N2CC(c3cnccc3OC)C2)C1 (stereo partly drawn) [Compound 210, ((2-(((3S,6S,9R,10aR)-9-ethyl-3-(3-(4-methoxypyridin-3-yl)azetidine-1-carbonyl)-5-oxodecahydropyrrolo[1,2-a]azocin-6-yl)carbamoyl)benzo[b]thiophen-5-yl)fluoromethyl)phosphonic acid] | < 0.1 | 3 to 30 |  |  | 
17 | COc1ncncc1C1CN(C(=O)[C@@H]2CC[C@@H]3CCC[C@H](NC(=O)c4cc5cc(C(F)P(=O)(O)O)ccc5s4)C(=O)N32)C1 (stereo partly drawn) [Compound 764, (fluoro(2-(((3S,6S,9aS)-3-(3-(4-methoxypyrimidin-5-yl)azetidine-1-carbonyl)-5-oxooctahydro-1H-pyrrolo[1,2-a]azepin-6-yl)carbamoyl)benzo [b]thiophen-5-yl)methyl) phosphonic acid] | 0.1 to 1 | 3 to 30 |  |  | 
